Test results: article PMC8780263, “Green by Design: Convergent Synthesis, Computational Analyses, and Activity Evaluation of New FXa Inhibitors Bearing Peptide Triazole Linking Units” (Pharmaceutics, 2021)
Like-named read-outs stand apart in the source and are kept apart here.

Legend:
[1] = tested on: HEK293 cells; assay: Cell viability analysis, CCK-8 method, HEK293; format: cell-based, human; details: 48 h; 10 mM, 100 μM, 10 μM, 100 nM, 10 nM
Protocol: (§1) The human cell lines (HEK293 and HeLa) applied in the cell viability assays were purchased from ATCC (Manassas, VA, USA). HEK293 and HeLa cell lines were cultivated in Dulbecco’s modified Eagle medium, supplemented with 10% fetal bovine serum, 100 units/mL of penicillin and […] of streptomycin and kept at 37 °C in a humidified atmosphere containing 5% CO2. A 100-μL aliquot of adherent cells was used to seed 96-well cell culture plates at 25,000 cells/well and allowed to adhere for 16 h prior to compound addition. Cells were treated with each compound in DMEM containing 10% FBS for 48 h. Subsequently, 10 μL of Cell Counting Kit-8 reagent (CCK-8; Sigma-Aldrich, Merck KGaA, Darmstadt Germany) was added into each well and incubated for 4 h at 37 °C in a humidified atmosphere containing 5% CO2. The absorbance measurement detected the cell viability at 450 nm in a Synergy H1 microplate reader (Biotek Instruments, Winooski, VT, USA). All experiments were performed in triplicate.
(§2) Cell viability assays were performed with HeLa and HEK293 cells using the CCK-8 method. Compounds 8a, 8k, 8l and 8p were assayed with decreasing concentrations: 10 mM (1), 100 μM (2), 10 μM (3), 100 nM (4) and 10 nM (5) (Figure 6).
(§3) Figure 6 Effect of the selected compounds on cell viability using the CCK-8 assay in (A) HeLa and (B) HEK93 cell lines. Concentrations used were 10 mM (1), 100 μM (2), 10 μM (3), 100 nM (4), and 10 nM (5). The upper and lower lines define ± 2 SD limits from the average value of control wells treated only with the vehicle (DMSO 2%). All values are means ± SD (n = 3). SD: standard deviation.

[2] = target: FXa enzyme (Bos taurus, UniProt P00743); assay: FXa in vitro inhibition assay (fluorometric SensoLyte Factor Xa Assay Kit); details: for inhibition at 100 µM: read-out: %Inhibition FXa, inhibition percentage at 100 μM; for %Inhibition FXa: inhibition percentage at 100 μM
Chain of FXa enzyme (P00743 234-492 limits assumed): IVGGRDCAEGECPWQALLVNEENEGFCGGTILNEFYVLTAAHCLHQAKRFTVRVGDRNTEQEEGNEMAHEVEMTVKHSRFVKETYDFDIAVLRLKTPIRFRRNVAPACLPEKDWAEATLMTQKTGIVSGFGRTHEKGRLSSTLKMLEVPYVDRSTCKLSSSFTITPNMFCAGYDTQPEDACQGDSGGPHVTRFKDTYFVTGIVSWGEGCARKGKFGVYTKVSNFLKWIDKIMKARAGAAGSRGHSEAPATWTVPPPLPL
Chain of FXa enzyme (P00743 41-180 partner limits assumed): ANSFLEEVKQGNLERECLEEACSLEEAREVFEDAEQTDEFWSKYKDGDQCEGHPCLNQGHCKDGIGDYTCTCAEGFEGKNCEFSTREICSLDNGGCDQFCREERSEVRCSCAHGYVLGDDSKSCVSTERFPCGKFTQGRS
Protocol: The FXa inhibition capacities of the newly synthesized molecules were evaluated using the SensoLyte® 520 Factor Xa Assay Kit.

[3] = tested on: HeLa cells; assay: Cell viability analysis, CCK-8 method, HeLa; format: cell-based, human; details: 48 h; 10 mM, 100 μM, 10 μM, 100 nM, 10 nM
Protocol: as §1, §2, §3

Structure (SMILES) | inhibition at 100 µM [2] | melting point | further results
O=C(Cn1cc(-c2ccccc2)nn1)Nc1ccc(N2CCCCC2=O)c(F)c1 [Compound 8a] | ≥ 50% |  | cell mortality in HEK-293 cells (cell viability, CCK-8) [1]: did not show any cell mortality; IC50 [2]: 41.2 ± 1.2 µM; toxicity in HeLa cells (cell viability, CCK-8) [3]: no signs of toxicity
CC(C)(C)OC(=O)N1CCN(c2ccc(NC(=O)Cn3cc(-c4ccccc4)nn3)cc2F)C(=O)C1 [Compound 8b] | 24% | 195 to 196 °C | 
O=C(Cn1cc(-c2ccccc2)nn1)Nc1ccc(N2CCOCC2=O)c(F)c1 [Compound 8c] | 17% | 254 to 255 °C | 
O=C(Cn1cc(-c2ccccc2)nn1)Nc1ccc(N2CCSCC2=O)c(F)c1 [Compound 8d] | 33% | 276 to 277 °C | 
O=C(Cn1cc(-c2ccc(F)cc2)nn1)Nc1ccc(N2CCCCC2=O)c(F)c1 [Compound 8e] | 17% |  | 
CC(C)(C)OC(=O)N1CCN(c2ccc(NC(=O)Cn3cc(-c4ccc(F)cc4)nn3)cc2F)C(=O)C1 [Compound 8f] |  |  | %Inhibition FXa [2]: 44%
CC(C)(C)OC(=O)N1CCN(c2ccc(NC(=O)Cn3cc(-c4ccc(Cl)cc4)nn3)cc2F)C(=O)C1 [Compound 8j] |  |  | %Inhibition FXa [2]: 23%
O=C(Cn1cc(-c2ccc(Cl)cc2)nn1)Nc1ccc(N2CCOCC2=O)c(F)c1 [Compound 8k] | ≥ 50% |  | cell mortality in HEK-293 cells (cell viability, CCK-8) [1]: did not show any cell mortality; IC50 [2]: 76.2 ± 16.9 µM; toxicity in HeLa cells (cell viability, CCK-8) [3]: no signs of toxicity
O=C(Cn1cc(-c2ccc(Cl)cc2)nn1)Nc1ccc(N2CCSCC2=O)c(F)c1 [Compound 8l] | ≥ 50% |  | cell mortality in HEK-293 cells (cell viability, CCK-8) [1]: did not show any cell mortality; IC50 [2]: 52.9 ± 5.5 µM; toxicity in HeLa cells (cell viability, CCK-8) [3]: no signs of toxicity
CC(C)(C)OC(=O)N1CCN(c2ccc(NC(=O)Cn3cc(-c4ccc(Br)cc4)nn3)cc2F)C(=O)C1 [Compound 8n] |  |  | %Inhibition FXa [2]: 22%
O=C(Cn1cc(-c2ccc(Br)cc2)nn1)Nc1ccc(N2CCSCC2=O)c(F)c1 [Compound 8p] | ≥ 50% |  | cell mortality in HEK-293 cells (cell viability, CCK-8) [1]: did not show any cell mortality; IC50 [2]: 17.2 ± 0.8 µM; toxicity in HeLa cells (cell viability, CCK-8) [3]: no signs of toxicity
CCOC(=O)c1ccc(OC(=O)CCCCCN=C(N)N)cc1.CS(=O)(=O)O [Gabexate mesylate, reference compound] |  |  | IC50 ([2]; FXa, dilution series 1 nM to 100 μM, triplicates): 0.34 ± 0.1 µM; %Inhibition FXa [2]: 93%

More lines, main results first:

inhibition at 100 µM [2] | melting point | Structure (SMILES) | further results
36% | 273 to 274 °C | O=C(Cn1cc(-c2ccc(F)cc2)nn1)Nc1ccc(N2CCOCC2=O)c(F)c1 [Compound 8g] | 
25% | 266 to 267 °C | O=C(Cn1cc(-c2ccc(F)cc2)nn1)Nc1ccc(N2CCSCC2=O)c(F)c1 [Compound 8h] | 
29% | 302 to 303 °C | O=C(Cn1cc(-c2ccc(Cl)cc2)nn1)Nc1ccc(N2CCCCC2=O)c(F)c1 [Compound 8i] | 
29% | 300 to 301 °C | O=C(Cn1cc(-c2ccc(Br)cc2)nn1)Nc1ccc(N2CCCCC2=O)c(F)c1 [Compound 8m] | 
37% | 302 to 303 °C | O=C(Cn1cc(-c2ccc(Br)cc2)nn1)Nc1ccc(N2CCOCC2=O)c(F)c1 [Compound 8o] | 
21% | 301 to 302 °C | Cc1ccc(-c2cn(CC(=O)Nc3ccc(N4CCCCC4=O)c(F)c3)nn2)cc1 [Compound 8q] | 
27% | 204 to 205 °C | Cc1ccc(-c2cn(CC(=O)Nc3ccc(N4CCN(C(=O)OC(C)(C)C)CC4=O)c(F)c3)nn2)cc1 [Compound 8r] | 
37% | 282 to 283 °C | Cc1ccc(-c2cn(CC(=O)Nc3ccc(N4CCOCC4=O)c(F)c3)nn2)cc1 [Compound 8s] | 
31% | 285 to 286 °C | Cc1ccc(-c2cn(CC(=O)Nc3ccc(N4CCSCC4=O)c(F)c3)nn2)cc1 [Compound 8t] | 
